ChEMBL document CHEMBL1158726, “Taxoids and abietanes from callus cultures of Taxus cuspidata” (2005)

Legend:
Type in all cases: functional, A2780 ADR
[1] = Reversal of multidrug resistance in human 2780AD cells assessed as [3H]vincristine accumulation at 10 ug/mL after 2 hrs relative to verapamil
[2] = Reversal of multidrug resistance in human 2780AD cells assessed as [3H]vincristine accumulation at 0.1 ug/mL after 2 hrs relative to control
[3] = Reversal of multidrug resistance in human 2780AD cells assessed as [3H]vincristine accumulation at 0.1 ug/mL after 2 hrs relative to verapamil
[4] = Reversal of multidrug resistance in human 2780AD cells assessed as [3H]vincristine accumulation at 1 ug/mL after 2 hrs relative to control
[5] = Reversal of multidrug resistance in human 2780AD cells assessed as [3H]vincristine accumulation at 10 ug/mL after 2 hrs relative to control
[6] = Reversal of multidrug resistance in human 2780AD cells assessed as [3H]vincristine accumulation at 1 ug/mL after 2 hrs relative to verapamil

Row | Compound | Activity [1] | Activity [2] | Activity [3] | Activity [4] | Activity [5] | Activity [6]
1 | C=C1[C@@H](OC(C)=O)CC[C@]2(C)[C@@H]1C[C@@H]1C[C@H](OC(C)=O)C(C)=C([C@@H](OC(C)=O)[C@@H]2OC(C)=O)C1(C)C [TAXUSIN] | 136% | 106% | 102% | 228% | 461% | 157%
2 | COc1ccc(CCN(C)CCCC(C#N)(c2ccc(OC)c(OC)c2)C(C)C)cc1OC (centres undefined) [VERAPAMIL] |  | 104% |  | 145% | 352% | 
